Target: T1, Tyrosine-protein kinase ITK/TSK (Homo sapiens, UniProt Q08881)
T1 sequence (Q08881 whole entry): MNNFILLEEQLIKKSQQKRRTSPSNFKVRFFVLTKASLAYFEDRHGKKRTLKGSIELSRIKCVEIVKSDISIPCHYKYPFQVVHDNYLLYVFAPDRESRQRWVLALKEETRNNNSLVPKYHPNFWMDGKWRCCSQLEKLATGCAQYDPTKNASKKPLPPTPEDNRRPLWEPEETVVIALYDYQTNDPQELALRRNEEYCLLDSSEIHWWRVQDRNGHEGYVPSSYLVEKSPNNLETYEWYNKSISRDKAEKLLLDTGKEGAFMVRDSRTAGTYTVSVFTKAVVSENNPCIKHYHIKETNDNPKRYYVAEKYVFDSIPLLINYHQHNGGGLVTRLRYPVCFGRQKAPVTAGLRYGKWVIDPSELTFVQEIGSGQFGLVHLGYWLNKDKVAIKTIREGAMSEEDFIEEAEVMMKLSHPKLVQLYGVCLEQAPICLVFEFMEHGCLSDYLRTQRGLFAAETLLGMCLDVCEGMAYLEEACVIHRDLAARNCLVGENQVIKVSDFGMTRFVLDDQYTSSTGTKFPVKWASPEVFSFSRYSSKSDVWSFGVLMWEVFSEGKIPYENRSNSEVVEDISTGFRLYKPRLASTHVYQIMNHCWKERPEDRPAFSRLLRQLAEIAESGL
Assay: Biochemical Inhibition Assay: 1H-pyrrolo[2,3-b]pyridine, 1H-pyrazolo[3,4-b]pyridine and 5H-pyrrolo[2,3-b]pyrazine series of compounds exhibited over >100 fold selective against Janus and TEC family of kinases except for the BMX and TXK it had activity of 30 and 45 nM respectively.

Row | Structure (SMILES) | IC50
1 | C=CC(=O)Nc1cccc(-c2cnc3[nH]cc(-c4cccc(S(=O)(=O)N(CC)CC)c4)c3c2)c1 | in the range around 35 nM
2 | C=CC(=O)Nc1cccc(-c2cnc3[nH]cc(-c4cccc(C)c4F)c3c2)c1 | in the range around 72.4 nM
3 | C=CC(=O)Nc1cccc(-c2cnc3[nH]cc(Cl)c3c2)c1 | in the range around 35 nM
4 | C=CC(=O)Nc1cccc(-c2cnc3[nH]cc(-c4cc5ccccc5[nH]4)c3n2)c1 | in the range around 35 nM
5 | C=CC(=O)Nc1cccc(-c2cnc3[nH]cc(C)c3c2)c1 | in the range around 35 nM

Reference: ChEMBL document CHEMBL3886406, “Substituted pyrrolo[2,3-b]pyridines as ITK and JAK inhibitors” (2015)
